From patent publication US20260297060A1, “COMPOUNDS FOR THE DEGRADATION OF MUTANT BRAF” (C4 THERAPEUTICS, INC., priority 2023, published 2026)
Read-outs that look alike come from different tables or passages of the source.

How the values were obtained:
BRAF V600E = biological target: T1, BRAF V600E (Homo sapiens, UniProt P15056+Q96SW2, V600E); assay: BRAF V600E HiBiT Degradation Assay; format: cell-based; details: for Emax: read-out: HiBiT-Degradation A375.10 BRAF 2 hours Emax
T1 construct: knock-in of the HiBiT tag to the endogenous BRAF V600E locus; host or cells: A375.10 (A375 clonal line, CRISPR HiBiT knock-in at the endogenous BRAF V600E locus)
Procedure: Compounds of this invention were tested for degradation of mutant BRAF V600E using the HiBiT assay, a luminescence-based assay for quantification of cellular protein levels using the Nano-Glo® HiBiT Lytic Detection System (Catalog No. N3050, Promega, Madison, WI USA). This assay utilizes the HiBiT tag on a protein of interest, which creates a luminescent signal in the presence of a complementing peptide and its substrate, the quantification of which is proportional to the amount of HiBiT-tagged protein in the cell.
The cell line A375, which is homozygous for the BRAF V600E mutation, was purchased from ATCC (Catalog No. CRL-1619, Manassas, VA, USA). A375 cells were engineered to express HiBiT tagged BRAF V600E by CRISPR knock-in of the HiBiT tag to the endogenous BRAF V600E locus, followed by selection of a clonal population containing the appropriate knock-in (referred to here as cell line A375.10). A375.10 cells were maintained at 37° C. in an atmosphere of 5% CO2 in Dulbecco's modified Eagle Medium (DMEM) with high glucose (Catalog No. 11965092), supplemented with 10% fetal bovine serum (FBS; Catalog No. 10437036), and 10 mM HEPES (Catalog No. 15630130), all obtained from Thermofisher Scientific (Waltham, MA, USA). Cell culture flasks and 384-well microplates were acquired from VWR (Radnor, PA, USA).
Test compounds were prepared by dissolving neat compounds in DMSO (Catalog No. D8418, Sigma-Aldrich, Inc., St. Louis, MO, USA) to generate 10 mM stock solutions, which were serially diluted (half log) in DMSO to generate an 11-point dose series (1000× final treatment concentration) in a 384-Well Low Dead Volume Microplate (Catalog No. LP-0200, Labcyte, San Jose, CA, USA). Using the Echo 550 Acoustic Liquid Handler (Labcyte), 30 nL of serially diluted compound solutions were dispensed in duplicate to 384-well TC-treated microplates (Catalog No. 3571, Corning, Glendale, CA, USA) and 30 nL of DMSO was dispensed to control wells. A375.10 cells resuspended in growth media without phenol red (Catalog No. 21063-029, Thermofisher Scientific) were then added to 384-well plates containing the 11-point dose series of compounds in duplicate (maximum 10 μM concentration for final treatment) at a density of 12,000 cells/well in 30 μl. Plates were then spun briefly, and cells were incubated with compound at 37° C. for 2 hours, 6 hours, or 24 hours.
Following the appropriate treatment time, Nano-Glo® HiBiT Lytic Assay reagents were added to the cells per the manufacturer's instructions by adding 30 μl of reagent per well, and the luminescence signal was acquired by plate reader. Cells treated with DMSO only (no test compound treatment) were used as the negative control (N). Media only (no cells added) with Nano-Glo reagent addition was used as the background or positive control (P). The percent response of compound treated samples were calculated by subtracting out the background signal (P) and normalizing to the DMSO control (N) as follows.
% Response=100×(Treated Signal−Average (P))/(Average (N)−Average (P)).
Data were analyzed with a 4-parameter logistic fit to generate sigmoidal dose-response curves. The DC50 is the concentration of compound at which 50% of the cellular BRAF V600E has been degraded. The Emax, or maximum effect of each compound, represents the amount of residual protein remaining in the cell following compound treatment. The IP, or inflection point of the dose-response curve, is the concentration of compound at which 50% of the observed degradation response is achieved.
The experiment was conducted at least once for each compound. If the experiment was conducted multiple times, the data shown in the table is the average of the two or more experiments.

A375-NRAS^Q61K cells = assay: CTGlo Cell Viability Assay, A375-NRAS^Q61K (A375.11) cells, 96 hours; format: cell-based, human; details: A375.11 (A375-NRAS^Q61K) cells; for CTGlo A375.11 96 hours Emax / Emax: lowest % viability achieved
Procedure: Compounds of this invention were tested for their effect on the viability of A375-NRAS^Q61K cells by quantification of ATP using the CellTiter-Glo® 2.0 Cell Viability Assay (Catalog No. G9243, Promega, Madison, WI, USA). This assay produces a luminescent signal in the presence of ATP, which is indicative of metabolically active cells, making the luminescence readout proportional to the number of viable cells.
A375-NRAS^Q61K cells (harboring BRAF homozygous V600E mutation and NRAS homozygous Q61K mutation) were purchased from ATCC (Catalog No. CRL-1619IG-2, Manassas, VA, USA). A375-NRAS^Q61K cells (also referred to here as A375.11) were maintained at 37° C. in an atmosphere of 5% CO2 in Dulbecco's modified Eagle Medium (DMEM) with high glucose (Catalog No. 11965092), supplemented with 10% fetal bovine serum (FBS; Catalog No. 10437036), and 10 mM HEPES (Catalog No. 15630130), all obtained from Thermofisher Scientific (Waltham, MA, USA). Cell culture flasks and 384-well microplates were acquired from VWR (Radnor, PA, USA).
Test compounds were prepared by dissolving neat compounds in DMSO (Catalog No. D8418, Sigma-Aldrich, Inc., St. Louis, MO, USA) to generate 10 mM stock solutions, which were serially diluted (half log) in DMSO to generate an 11-point dose series (1000× final treatment concentration) in a 384-Well Low Dead Volume Microplate (Catalog No. LP-0200, Labcyte, San Jose, CA, USA). Using the Echo 550 Acoustic Liquid Handler (Labcyte), 50 nL of serially diluted compound solutions were dispensed in duplicate to 384-well TC-treated microplates (Catalog No. 3571, Corning, Glendale, CA, USA) and 50 nL of DMSO was dispensed to control wells. A375-NRAS^Q61K cells were resuspended in growth media and added to 384-well plates containing a […] of compounds in duplicate (maximum 10 μM concentration for final treatment) at a density of 250 cells/well in 50 μl. Cells were also plated to a 384-well plate with no compound treatment, to which CellTiter-Glo® reagent was added and luminescence was read right after plating to act as a baseline signal at time of plating (To). Plates treated with compound were then spun briefly, and cells were incubated with compound at 37° C. for 96 hours.
After 96 hours compound treatment, CellTiter-Glo® reagent was added to the cells at 25 μl per well and luminescence was read out on the PHERAstar plate reader (BMG Labtech, Ortenberg, Germany). Cells treated with DMSO only (no test compound treatment) were used as the negative control (N). DMSO treated cells with no CellTiter-Glo® reagent added were used as the background or positive control (P). Viability was determined by subtracting out the average background signal (P) and normalized to the average untreated signal (N) set at 100%.
Data were analyzed with a 4-parameter logistic fit to generate sigmoidal dose-response curves. The half-maximal inhibition of cell growth (GI50) is the concentration at which the fitted curve crosses 50%. The Emax, or maximum effect of each compound, represents the lowest % viability achieved following compound treatment.

[1] = A375.10 cells, BRAF V600E, 2 hours, inflection point, read-out: HiBiT-Degradation A375.10 BRAF 2 hours IP
[2] = A375.10 cells, BRAF V600E, 2 hours, read-out: HiBiT-Degradation A375.10 BRAF 2 hours DC50
[3] = A375.10 cells, BRAF V600E, 2 hours, residual protein remaining

T1 sequence (P15056 whole entry V600E): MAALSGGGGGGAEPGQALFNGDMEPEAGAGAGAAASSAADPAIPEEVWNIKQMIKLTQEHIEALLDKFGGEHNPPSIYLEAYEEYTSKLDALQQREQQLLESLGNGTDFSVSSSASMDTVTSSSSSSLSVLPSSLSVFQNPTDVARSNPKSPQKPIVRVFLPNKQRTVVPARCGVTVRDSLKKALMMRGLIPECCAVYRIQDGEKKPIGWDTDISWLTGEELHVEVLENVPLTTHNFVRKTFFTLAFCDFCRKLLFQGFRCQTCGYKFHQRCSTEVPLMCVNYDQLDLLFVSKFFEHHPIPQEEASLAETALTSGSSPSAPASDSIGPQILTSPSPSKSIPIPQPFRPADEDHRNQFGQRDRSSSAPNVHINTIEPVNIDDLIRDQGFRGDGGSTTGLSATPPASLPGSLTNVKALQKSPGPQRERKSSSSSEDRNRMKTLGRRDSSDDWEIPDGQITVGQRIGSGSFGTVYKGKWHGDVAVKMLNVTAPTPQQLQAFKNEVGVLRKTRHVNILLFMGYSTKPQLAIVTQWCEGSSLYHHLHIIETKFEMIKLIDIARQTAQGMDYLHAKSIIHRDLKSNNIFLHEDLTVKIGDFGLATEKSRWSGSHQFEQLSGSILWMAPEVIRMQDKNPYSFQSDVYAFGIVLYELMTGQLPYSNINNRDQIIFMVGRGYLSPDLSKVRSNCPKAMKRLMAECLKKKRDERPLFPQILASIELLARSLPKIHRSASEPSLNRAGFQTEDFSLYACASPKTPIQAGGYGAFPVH
T1 sequence (Q96SW2 whole entry): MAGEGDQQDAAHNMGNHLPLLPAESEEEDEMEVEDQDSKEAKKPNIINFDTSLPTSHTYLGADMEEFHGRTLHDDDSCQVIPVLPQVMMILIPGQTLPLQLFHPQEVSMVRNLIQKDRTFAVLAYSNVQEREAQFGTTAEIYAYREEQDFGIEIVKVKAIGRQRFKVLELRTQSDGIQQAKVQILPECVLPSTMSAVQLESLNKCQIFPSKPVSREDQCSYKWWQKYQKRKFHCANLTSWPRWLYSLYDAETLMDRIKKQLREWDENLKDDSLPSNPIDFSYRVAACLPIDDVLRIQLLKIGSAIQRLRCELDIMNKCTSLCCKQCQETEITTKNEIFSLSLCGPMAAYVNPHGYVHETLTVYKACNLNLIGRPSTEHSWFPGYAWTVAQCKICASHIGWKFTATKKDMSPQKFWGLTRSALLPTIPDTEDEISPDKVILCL
T1 sequence (Q16531 whole entry partner): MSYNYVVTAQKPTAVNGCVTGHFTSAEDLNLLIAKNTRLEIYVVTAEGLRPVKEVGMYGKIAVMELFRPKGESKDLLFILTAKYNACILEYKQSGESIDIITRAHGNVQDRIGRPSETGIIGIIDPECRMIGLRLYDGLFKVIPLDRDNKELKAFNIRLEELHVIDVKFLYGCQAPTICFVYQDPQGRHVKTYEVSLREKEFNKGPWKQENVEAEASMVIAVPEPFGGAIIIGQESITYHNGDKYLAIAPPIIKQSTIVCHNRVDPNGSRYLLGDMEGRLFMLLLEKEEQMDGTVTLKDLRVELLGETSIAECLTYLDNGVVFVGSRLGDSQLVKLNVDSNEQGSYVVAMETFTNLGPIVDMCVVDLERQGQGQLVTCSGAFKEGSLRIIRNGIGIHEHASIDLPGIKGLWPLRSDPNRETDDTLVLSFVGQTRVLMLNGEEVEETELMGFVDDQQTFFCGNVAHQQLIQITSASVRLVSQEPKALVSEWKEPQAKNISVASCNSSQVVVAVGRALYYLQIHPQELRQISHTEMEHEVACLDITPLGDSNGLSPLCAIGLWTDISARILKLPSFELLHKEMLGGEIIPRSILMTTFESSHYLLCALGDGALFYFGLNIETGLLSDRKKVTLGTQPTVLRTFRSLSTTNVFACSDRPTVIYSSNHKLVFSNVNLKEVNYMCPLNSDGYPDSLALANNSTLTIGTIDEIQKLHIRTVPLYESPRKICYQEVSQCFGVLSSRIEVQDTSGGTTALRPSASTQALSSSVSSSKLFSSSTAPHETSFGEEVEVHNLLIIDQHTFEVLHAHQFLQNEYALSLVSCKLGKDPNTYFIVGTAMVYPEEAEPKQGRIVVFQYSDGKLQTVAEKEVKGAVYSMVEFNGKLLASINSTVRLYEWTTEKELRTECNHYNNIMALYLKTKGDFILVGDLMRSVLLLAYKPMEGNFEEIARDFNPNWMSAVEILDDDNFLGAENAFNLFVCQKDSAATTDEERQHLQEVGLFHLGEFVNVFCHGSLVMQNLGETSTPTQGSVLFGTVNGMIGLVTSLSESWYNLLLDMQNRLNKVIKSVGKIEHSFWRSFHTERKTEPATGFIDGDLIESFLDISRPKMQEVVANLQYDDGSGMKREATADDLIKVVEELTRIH

Structure (SMILES) | DC50 (BRAF V600E; [1]) | DC50 (BRAF V600E; [2]) | HiBiT-Degradation A375.10 BRAF 2 hours Emax (BRAF V600E; [3]) | GI50 (A375-NRAS^Q61K cells) | Emax (BRAF V600E; [3]) | GI50 (A375-NRAS^Q61K cells; Homo sapiens, 96 h) | HiBiT-Degradation A375.10 BRAF 2 hours Emax (BRAF V600E) | CTGlo A375.11 96 hours Emax (A375-NRAS^Q61K cells) | Emax (A375-NRAS^Q61K cells; Homo sapiens, 96 h)
CCN(C)S(=O)(=O)Nc1ccc(F)c(Oc2ccc3ncn([C@@H]4C[C@@H]5CN(C6CCC(c7cc8c(cc7F)c(N7CCC(=O)NC7=O)nn8C)CC6)C[C@@H]5C4)c(=O)c3c2)c1C#N (single isomer, unassigned) [Compound 17] | < 1 µM | < 1 µM | ** (<90% and >50%) | > 10 µM | – | – | – | ** (<90% and >50%) | –
CCN(C)S(=O)(=O)Nc1ccc(F)c(Oc2ccc3ncn([C@@H]4CCC5(CCN(C6CCC(c7ccc(NC8CCC(=O)NC8=O)cc7F)CC6)CC5)C4)c(=O)c3c2)c1C#N (single isomer, unassigned) [Compound 22] | < 1 µM | < 1 µM | – | – | 50 to 90% | > 10 µM | – | – | 50 to 90%
CCN(C)S(=O)(=O)Nc1ccc(F)c(Oc2ccc3ncn([C@H]4CCC5(CCN(C6CCC(c7ccc(NC8CCC(=O)NC8=O)cc7F)CC6)CC5)C4)c(=O)c3c2)c1C#N (single isomer, unassigned) [Compound 25] | < 1 µM | 1 to 10 µM | ** (<90% and >50%) | < 1 µM | – | – | – | ** (<90% and >50%) | –
CCN(C)S(=O)(=O)Nc1ccc(F)c(Oc2ccc3ncn([C@@H]4CCC5(CCN(C6CCC(c7cc8c(cc7F)c(N7CCC(=O)NC7=O)nn8C)CC6)CC5)C4)c(=O)c3c2)c1C#N (single isomer, unassigned) [Compound 32] | < 1 µM | < 1 µM | – | 1 to 10 µM | – | – | ** (<90% and >50%) | *** (<=50%) | –

The next lines start with results.

DC50 (BRAF V600E; [1]) | DC50 (BRAF V600E; [2]) | HiBiT-Degradation A375.10 BRAF 2 hours Emax (BRAF V600E; [3]) | GI50 (A375-NRAS^Q61K cells) | Emax (BRAF V600E; [3]) | GI50 (A375-NRAS^Q61K cells; Homo sapiens, 96 h) | HiBiT-Degradation A375.10 BRAF 2 hours Emax (BRAF V600E) | Structure (SMILES) | CTGlo A375.11 96 hours Emax (A375-NRAS^Q61K cells) | Emax (A375-NRAS^Q61K cells; Homo sapiens, 96 h)
< 1 µM | < 1 µM | *** (<=50%) | > 10 µM | – | – | – | CCN(C)S(=O)(=O)Nc1ccc(F)c(Oc2ccc3ncn(C4CCC5(CC4)CCN(C4CCC(c6cc7c(cc6F)c(N6CCC(=O)NC6=O)nn7C)CC4)CC5)c(=O)c3c2)c1C#N (single isomer, unassigned) [Compound 13, 9-[6-[2-cyano-3-[[ethyl(methyl)sulfamoyl]amino]-6-fluoro-phenoxy]-4-oxo-quinazolin-3-yl]-3-[4-[3-(2,4-dioxohexahydropyriimidin-1-yl)-5-fluoro-1-methyl-indazol-6-yl]cyclohexyl]-3-azaspiro[5.5]undecane] | ** (<90% and >50%) | –
< 1 µM | < 1 µM | – | – | 50 to 90% | > 10 µM | – | CCN(C)S(=O)(=O)Nc1ccc(F)c(Oc2ccc3ncn([C@H]4C[C@@H]5CN(C6CCC(c7cc8c(cc7F)c(N7CCC(=O)NC7=O)nn8C)CC6)C[C@@H]5C4)c(=O)c3c2)c1C#N (single isomer, unassigned) [Compound 15] | – | 50 to 90%
< 1 µM | < 1 µM | – | 1 to 10 µM | 50 to 90% | – | – | CCN(C)S(=O)(=O)Nc1ccc(F)c(Oc2ccc3ncn([C@@H]4C[C@@H]5CN(C6CCC(c7cc8c(cc7F)c(N7CCC(=O)NC7=O)nn8C)CC6)C[C@@H]5C4)c(=O)c3c2)c1C#N (single isomer, unassigned) [Compound 16] | – | < 50%
